pIC50: −log10 of the molar value.
Test system: PBM cells
Assay: Cytotoxicity in uninfected PHA-stimulated human PBM cells
Details: read-out: Cytotoxicity (IC50) PBM cells, 6 days, cell growth

In the case of `Cc1cn([C@H]2C[C@H](N=[N+]=[N-])[C@@H](CO)O2)c(=O)[nH]c1=O` [AZT, 3′-azido-3′-deoxythymidine], the pIC50 was under 4.00.
